Assay results published in publication PMC11352859, “Functionalized Congeners of 2H-Chromene P2Y6 Receptor Antagonists” (Cells, 2024).
Where two headings read alike, the source gives them in different places.

Assays:
[1] = target: T1, α2B (Homo sapiens, UniProt P18089); assay: PDSP binding assay, α2B; conditions: mean, n = 2
T1 construct: NIMH Psychoactive Drug Screening Program (PDSP)
T1 sequence (P18089 1-450): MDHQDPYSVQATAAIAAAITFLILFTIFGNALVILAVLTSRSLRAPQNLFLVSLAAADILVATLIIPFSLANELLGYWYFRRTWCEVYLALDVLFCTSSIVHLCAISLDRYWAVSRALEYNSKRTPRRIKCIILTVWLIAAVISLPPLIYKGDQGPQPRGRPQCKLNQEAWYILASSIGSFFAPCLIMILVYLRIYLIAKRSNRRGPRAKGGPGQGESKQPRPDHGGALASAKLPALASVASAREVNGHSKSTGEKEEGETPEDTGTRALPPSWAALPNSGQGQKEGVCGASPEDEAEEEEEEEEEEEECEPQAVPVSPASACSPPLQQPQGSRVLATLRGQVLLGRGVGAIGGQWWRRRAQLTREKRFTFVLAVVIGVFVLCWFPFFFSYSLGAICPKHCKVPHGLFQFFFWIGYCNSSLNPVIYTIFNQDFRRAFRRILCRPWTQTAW
Source text: (§1) Table S2. Off-target screening (to replace table later). We thank Dr. Bryan L. Roth (Univ. North Carolina at Chapel Hill) and National Institute of Mental Health's Psychoactive Drug Screening Program (Contract # HHSN-271-2008-00025-C) for screening data. Reference: Besnard et al.
(§2) Procedures: https://pdsp.unc.edu/pdspweb/content/UNC-CH%20Protocol%20Book.pdf […]
(§3) nucleosides were found at the following sites (human unless noted): 5HT1A, 5HT1B, 5HT1D, […]
(§4) β3, BZP rat brain site, D1, D2, D3, D4, D5, GABAA, H1, H2, H3, H4, M1, M2, M5, δ-opioid receptor (DOR), κ-opioid receptor (KOR), μ-opioid receptor (MOR), σ1, σ2, DAT, NET, SERT. Ki values […]
(§5) Compound # PDSP # Receptor LogKi Ki (nM)

[2] = target: T2, 5-HT1A (Homo sapiens, UniProt P08908); assay: PDSP binding assay, 5-HT1A; conditions: Table S2, single determination
T2 construct: NIMH Psychoactive Drug Screening Program (PDSP)
Source text: as §1, §2, §3, §4, §5

[3] = system: HeLa cells; assay: MTT cell viability assay, HeLa cells; format: cell-based, human; conditions: for % survival: 12 h, MTT
Method: The 1321N1 astrocytoma (hP2Y6R-overexpressing) and HeLa (non-transfected) cell lines were cultured in Dulbecco’s modified Eagle’s medium (DMEM, HyClone, Logan, UT, USA) supplemented with 5% heat-inactivated fetal bovine serum (FBS, HyClone, UT, USA), 100 U/mL penicillin, and 100 µg/mL streptomycin in 5% CO2 at 37 °C. The cell viability was determined using an MTT kit (Sigma, St. Louis, MO, USA) according to the manufacturer’s instructions. Briefly, 1 × 10^4 cells were seeded in triplicate in 96-well plates. The hP2Y6R-astrocytoma and HeLa cells were treated with a P2Y6R agonist and antagonists at a range of concentrations and incubated for 12 h. The cell viability was measured at 490 nm using a SpectraMax-M5 Spectrometer (Molecular Devices, San Jose, CA, USA).

[4] = target: T3, κ-opioid receptor (KOR) (Homo sapiens, UniProt P41145); assay: PDSP binding assay, κ-opioid
T3 construct: NIMH Psychoactive Drug Screening Program (PDSP)
Source text: as §1, §2, §3, §4, §5

T3 sequence (P41145 whole entry): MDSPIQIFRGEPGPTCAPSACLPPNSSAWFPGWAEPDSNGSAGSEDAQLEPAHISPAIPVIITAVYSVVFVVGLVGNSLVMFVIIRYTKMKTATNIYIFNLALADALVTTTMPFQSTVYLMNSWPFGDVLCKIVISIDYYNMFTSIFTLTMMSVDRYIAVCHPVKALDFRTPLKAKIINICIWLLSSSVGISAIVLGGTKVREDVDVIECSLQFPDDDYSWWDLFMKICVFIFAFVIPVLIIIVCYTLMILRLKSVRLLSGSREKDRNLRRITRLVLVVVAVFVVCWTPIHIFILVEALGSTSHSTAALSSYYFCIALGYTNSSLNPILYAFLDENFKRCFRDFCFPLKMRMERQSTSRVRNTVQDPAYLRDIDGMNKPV
T2 sequence (P08908 whole entry): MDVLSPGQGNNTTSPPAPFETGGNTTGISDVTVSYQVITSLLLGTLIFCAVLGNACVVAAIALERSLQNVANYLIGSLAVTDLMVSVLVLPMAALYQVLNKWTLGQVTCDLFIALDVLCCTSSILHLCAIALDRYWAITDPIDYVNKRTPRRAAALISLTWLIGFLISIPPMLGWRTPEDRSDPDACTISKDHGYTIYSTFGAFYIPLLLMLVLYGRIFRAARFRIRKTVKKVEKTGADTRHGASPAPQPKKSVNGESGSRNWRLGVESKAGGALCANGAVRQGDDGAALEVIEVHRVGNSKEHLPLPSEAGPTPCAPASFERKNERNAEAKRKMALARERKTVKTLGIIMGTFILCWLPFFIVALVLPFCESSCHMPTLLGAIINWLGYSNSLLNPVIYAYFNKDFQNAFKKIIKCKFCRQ

Question: What does the source list for `CC(C)(C)OC(=O)NCCCCCCCC#Cc1ccc2c(c1)C=C([N+](=O)[O-])C(C(F)(F)F)O2` (stereo not drawn) [Compound 30, tert-Butyl (9-(3-nitro-2-(trifluoromethyl)-2H-chromen-6-yl)non-8-yn-1-yl)carbamate]?
Answer: Ki [1]: 170 nM; Ki [2]: > 10000 nM; % survival ([3]; 0.05 µM): 94%; % survival ([3]; 0.1 µM): 94%; % survival ([3]; 0.5 µM): 87%; % survival ([3]; 1 µM): 71%; inhibition of viability ([3]; at 1 µM, 12 h exposure): 29%; Ki ([4]; PDSP, mean, n = 2, read-out: Ki, κ-opioid): 2200 nM; Ki ([4]; Table S2, single determination, read-out: Ki (nM), KOR): 1400 nM
